# Read-outs that look alike come from different tables or passages of the source. No end group written: not given here.
# Tests used:
# [1] = tested on: Kv1.3; conditions: read-out: IC50 as Kv1.3 inhibitor; cited from earlier work
# Description: Here, the Kv1.3 channel-sensitive hBD2 was used as the molecular template to search potential mouse β-defensin from the biological databases. […] Besides the sequence similarity, the distribution of six cysteine amino acid residues was also identical. In order to better understand the structural feature of mBD3, its structure was modeled by the tem ...
# [2] = tested on: mouse Kv1.1 channel; test: Whole-cell patch clamp, mouse Kv1.1 channel in HEK293 cells; assay type: cell-based; conditions: 1 μM rmBD3, mean ± SE, at least three times, SEM
# Description: (§1) Human embryonic kidney 293 (HEK293) cells were cultured Dulbecco’s modified Eagle medium (Thermo Fisher Scientific, Pittsburgh, PA. USA) with 10% heat-inactivated fetal calf serum supplemented with penicillin (100 units/mL) and streptomycin (100 μg/mL) in a humidified 5% CO2 incubator at 37 °C. Plasmids were transfected into HEK293 cells using the TurboFect in vitro Transfection Reagent (Thermo Fisher Scientific, Pittsburgh, PA, USA). Potassium currents were recorded after transfection for 1 to 3 days and positive cells were selected based on the presence of GFP fluorescence.
# (§2) Electrophysiological experiments were carried out at room temperature using the whole-cell recording mode by EPC10 patch clamp amplifier (Heka Elektronik, Lambrecht, Germany), which was controlled by Patchmaster software version 2 × 65 (Heka Elektronik, Holliston, MA, USA). For all the channels, HEK293 cells were bathed with mammalian Ringer’s solution contained 5 mM KCl, 140 mM NaCl, 10 mM HEPES, 2 mM CaCl2, 1 mM MgCl2 and 10 mM D-glucose (pH adjusted to 7.4 with NaOH). When rmBD3 was applied, 0.01% BSA was added to the Ringer’s solution. A multichannel microperfusion system MPS-2 (INBIO Inc., Wuhan, China) was used to exchange the external recording bath solution. […] The currents through Kv channels and KCNQ1/KCNE1 channel were recorded according to previously published references. […]
# [3] = tested on: mouse Kv1.2 channel; test: Whole-cell patch clamp, mouse Kv1.2 channel in HEK293 cells; assay type: cell-based; conditions: 1 μM rmBD3, mean ± SE, at least three times, SEM
# Description: as §1, §2
# [4] = tested on: mouse Kv1.3 channel; test: Whole-cell patch clamp, mouse Kv1.3 channel in HEK293 cells; assay type: cell-based; conditions: 1 μM rmBD3, mean ± SE, at least three times, SEM
# Description: as §1, §2
# [5] = tested on: mouse Kv1.6 channel; test: Whole-cell patch clamp, mouse Kv1.6 channel in HEK293 cells; assay type: cell-based; conditions: mean ± SE, SEM; for inhibition of mouse Kv1.6 channel currents: at least three times
# Description: as §1
# (§3) Electrophysiological experiments were carried out at room temperature using the whole-cell recording mode by EPC10 patch clamp amplifier (Heka Elektronik, Lambrecht, Germany), which was controlled by Patchmaster software version 2 × 65 (Heka Elektronik, Holliston, MA, USA). For all the channels, HEK293 cells were bathed with mammalian Ringer’s solution contained 5 mM KCl, 140 mM NaCl, 10 mM HEPES, 2 mM CaCl2, 1 mM MgCl2 and 10 mM D-glucose (pH adjusted to 7.4 with NaOH). When rmBD3 was applied, 0.01% BSA was added to the Ringer’s solution. A multichannel microperfusion system MPS-2 (INBIO Inc., Wuhan, China) was used to exchange the external recording bath solution. The internal pipette solution contains 140 mM KCl, 1 mM MgCl2, 1 mM EGTA, 1 mM Na2ATP and 5 mM HEPES (pH adjusted to 7.4 with NaOH). All channel currents were elicited by depolarizing voltage steps of 200 ms from the holding potential −80 mV to +50 mV. Currents were typically digitized at 20 kHz and filtered at 2.9 kHz (Bessel). Electrode resistances were 3.0–5.0 MΩ, and the series resistance was usually compensated by 85%. The currents through Kv channels and KCNQ1/KCNE1 channel were recorded according to previously published references.
# (§4) The IC50 values were obtained by fitting a modified Hill equation to the data with the formula: IrmBD3/Icontrol = 1/(1 + [rmBD3]/IC50), where [rmBD3] is the concentration of rmBD3, IrmBD3 and Icontrol are the peak currents in the presence and absence of rmBD3 at four different concentrations. The conductance of mouse Kv1.6 channel was calculated by the formula: G = Ipeak/(V − EKv1.6), where Ipeak is the peak current, EKv1.6 is the reversal potential of the Kv1.6 channel. The conductance-voltage (G-V) curves were generated by the measured peak currents and fitted with a V50-V equation using the formula: G/Gmax = 1/(1 + exp [(V − V50)/k]), where G is the conductance of the channels, Gmax is the maximal channel conductance, V is the membrane voltage, V50 is the voltage of half-maximal activation, and k is the slope factor. The data were presented as the means ± SE of at least three times repeated experiments. Sigmaplot 12.5 and GraphPad Prism 5 software were used for analysis.
# [6] = tested on: human Kv1.1 channel; test: Whole-cell patch clamp, human Kv1.1 channel in HEK293 cells; assay type: cell-based; conditions: 1 μM rmBD3, mean ± SE, at least three times, SEM
# Description: (§5) The pRc/CMV-hKv1.3 vector was kindly provided by Prof. Stephan Grissmer (University of Ulm, Ulm, Germany) and Prof. Olaf Pongs (Zentrum für Molekulare Neurobiologie der University Hamburg, Hamburg, Germany). The cDNAs encoding human Kv1.1, Kv1.2, hERG and KCNQ1/KCNE1 channels were subcloned into the vector pIRES2-EGFP (TaKaRa Clontech, Mountain View, CA, USA) for coexpression with the green fluorescent protein (GFP), and the other channels were subcloned into vector pcDNA 3.1(+) (TaKaRa Clontech, Mountain View, CA, USA) for coexpression with GFP. The constructs were verified by DNA sequencing (Sangon Biotech, Shanghai, China). The mutants Asp400, Asp401, Val402, Asp403, Asp411, Met428 and Tyr429 on the pore region of wild type mouse Kv1.6 channel plasmids were mutated into Ala with QuikChange Site-Directed Mutagenesis Kit (Agilent Stratagene, Santa Clara, CA, USA). All the mutants were verified by DNA sequencing before being used (Sangon Biotech, China).
# as §1, with “Plasmids were transfected into HEK293 cells using the TurboFect in vitro Transfection Reagent (Thermo Fisher Scientific, Pittsburgh, PA, USA).” left out, “fluorescence. […]” for “fluorescence.”
# [7] = tested on: human Kv1.2 channel; test: Whole-cell patch clamp, human Kv1.2 channel in HEK293 cells; assay type: cell-based; conditions: 1 μM rmBD3, mean ± SE, at least three times, SEM
# Description: as §5
# as §1, with “Plasmids were transfected into HEK293 cells using the TurboFect in vitro Transfection Reagent (Thermo Fisher Scientific, Pittsburgh, PA, USA).” left out, “fluorescence. […]” for “fluorescence.”
# [8] = tested on: human Kv1.3 channel; test: Whole-cell patch clamp, human Kv1.3 channel in HEK293 cells; assay type: cell-based; conditions: 1 μM rmBD3, mean ± SE, at least three times, SEM
# Description: as §5
# as §1, with “Plasmids were transfected into HEK293 cells using the TurboFect in vitro Transfection Reagent (Thermo Fisher Scientific, Pittsburgh, PA, USA).” left out, “fluorescence. […]” for “fluorescence.”
# [9] = tested on: human Kv1.6 channel; test: Whole-cell patch clamp, human Kv1.6 channel in HEK293 cells; assay type: cell-based; conditions: 1 μM rmBD3, mean ± SE, at least three times, SEM
# Description: as §1, §2
# [10] = tested on: human Kv3.2 channel; test: Whole-cell patch clamp, human Kv3.2 channel in HEK293 cells; assay type: cell-based; conditions: 1 μM rmBD3, mean ± SE, at least three times, SEM
# Description: as §1, §2
# [11] = tested on: human KCNQ1/KCNE1 channel; assay type: cell-based; conditions: HEK293 cells, mean ± SE, SEM; for inhibition of human KCNQ1/KCNE1 channel currents: at least three times
# Description: as §5, §1
# as §3, with “Electrode resistances were 3.0–5.0 MΩ, and the series resistance was usually compensated by 85%.” left out
# as §4, with “The data were presented as the means ± SE of at least three times repeated experiments. Sigmaplot 12.5 and GraphPad Prism 5 software were used for analysis.” left out
# [12] = tested on: human KCNQ1 channel; assay type: cell-based; conditions: 1 μM rmBD3; HEK293 cells; mean ± SE, at least three times; SEM
# Description: as §1, §2
# [13] = tested on: hERG channel; assay type: cell-based, human; conditions: 1 μM rmBD3; HEK293 cells; mean ± SE, at least three times; SEM
# Description: as §5
# as §1, with “Plasmids were transfected into HEK293 cells using the TurboFect in vitro Transfection Reagent (Thermo Fisher Scientific, Pittsburgh, PA, USA).” left out, “fluorescence. […]” for “fluorescence.”
# [14] = tested on: Kv1.6-D400A channel; test: Patch clamp, mouse Kv1.6 pore region mutant D400A; assay type: cell-based; conditions: 1 μM rmBD3; HEK293 cells; mean ± SE, at least three times; SEM
# Description: as §5
# as §1, with “Plasmids were transfected into HEK293 cells using the TurboFect in vitro Transfection Reagent (Thermo Fisher Scientific, Pittsburgh, PA, USA).” left out, “fluorescence. […]” for “fluorescence.”
# [15] = tested on: Kv1.6-D401A channel; test: Patch clamp, mouse Kv1.6 pore region mutant D401A; assay type: cell-based; conditions: 1 μM rmBD3; HEK293 cells; mean ± SE, at least three times; SEM
# Description: as §5
# as §1, with “Plasmids were transfected into HEK293 cells using the TurboFect in vitro Transfection Reagent (Thermo Fisher Scientific, Pittsburgh, PA, USA).” left out, “fluorescence. […]” for “fluorescence.”
# [16] = tested on: Kv1.6-V402A channel; test: Patch clamp, mouse Kv1.6 pore region mutant V402A; assay type: cell-based; conditions: 1 μM rmBD3; HEK293 cells; mean ± SE, at least three times; SEM
# Description: as §5
# as §1, with “Plasmids were transfected into HEK293 cells using the TurboFect in vitro Transfection Reagent (Thermo Fisher Scientific, Pittsburgh, PA, USA).” left out, “fluorescence. […]” for “fluorescence.”
# [17] = tested on: Kv1.6-D403A channel; test: Patch clamp, mouse Kv1.6 pore region mutant D403A; assay type: cell-based; conditions: 1 μM rmBD3; HEK293 cells; mean ± SE, at least three times; SEM
# Description: as §5
# as §1, with “Plasmids were transfected into HEK293 cells using the TurboFect in vitro Transfection Reagent (Thermo Fisher Scientific, Pittsburgh, PA, USA).” left out, “fluorescence. […]” for “fluorescence.”
# [18] = tested on: Kv1.6-D411A channel; test: Patch clamp, mouse Kv1.6 pore region mutant D411A; assay type: cell-based; conditions: 1 μM rmBD3; HEK293 cells; mean ± SE, at least three times; SEM
# Description: as §5
# as §1, with “Plasmids were transfected into HEK293 cells using the TurboFect in vitro Transfection Reagent (Thermo Fisher Scientific, Pittsburgh, PA, USA).” left out, “fluorescence. […]” for “fluorescence.”
# [19] = tested on: Kv1.6-M428A channel; test: Patch clamp, mouse Kv1.6 pore region mutant M428A; assay type: cell-based; conditions: 1 μM rmBD3; HEK293 cells; mean ± SE, at least three times; SEM
# Description: as §5
# as §1, with “Plasmids were transfected into HEK293 cells using the TurboFect in vitro Transfection Reagent (Thermo Fisher Scientific, Pittsburgh, PA, USA).” left out, “fluorescence. […]” for “fluorescence.”
# [20] = tested on: Kv1.6-Y429A channel; test: Patch clamp, mouse Kv1.6 pore region mutant Y429A; assay type: cell-based; conditions: 1 μM rmBD3; HEK293 cells; mean ± SE, at least three times; SEM
# Description: as §5
# as §1, with “Plasmids were transfected into HEK293 cells using the TurboFect in vitro Transfection Reagent (Thermo Fisher Scientific, Pittsburgh, PA, USA).” left out, “fluorescence. […]” for “fluorescence.”
substance,measurement,setting,value
human β-defensin 2 [hBD2],IC50,[1],0.022 nM
"mouse β-defensin 3 (KKINNPVSCLRKGGRCWNRCIGNTRQIGSCGVPFLKCCKRK; ends and bridges not checked; cysteine pairing not given here; UniProt Q9WTL0 23-63, looked up) [rmBD3, Recombinant mouse β-defensin 3 expressed in E. coli, cleaved from His-tag fusion by Enterokinase, HPLC purified]",inhibition of mouse Kv1.1 potassium currents,[2],19.0 ± 2.2%
same,inhibition of mouse Kv1.2 potassium currents,[3],4.9 ± 0.6%
same,inhibition of mouse Kv1.3 potassium currents,[4],14.0 ± 3.7%
same,inhibition of mouse Kv1.6 channel currents,"[5]; 1 nM rmBD3, HEK293 cells",18.1 ± 2.4%
same,inhibition of mouse Kv1.6 channel currents,"[5]; 10 nM rmBD3, HEK293 cells",26.4 ± 1.8%
same,inhibition of mouse Kv1.6 channel currents,"[5]; 1 μM rmBD3, HEK293 cells, whole-cell patch clamp",56.1 ± 4.2%
same,inhibition of mouse Kv1.6 channel currents,"[5]; 10 μM rmBD3, HEK293 cells",73.1 ± 2.2%
same,IC50,"[5]; Hill equation fitting, four concentrations, HEK293 cells, read-out: IC50, mouse Kv1.6 channel currents",600 ± 400 nM
same,k (slope factor) of activation G-V curve of Kv1.6 channel in the presence of rmBD3,"[5]; after treatment with 1 μM rmBD3 (control 6.8 ± 0.6), Boltzmann fitting",6.5 ± 0.4
same,V50 of activation G-V curve of Kv1.6 channel in the presence of rmBD3,"[5]; after treatment with 1 μM rmBD3 (control −23.8 ± 0.7 mV), Boltzmann fitting",−18.8 ± 0.5 mV
same,inhibition of human Kv1.1 potassium currents,[6],8.8 ± 3.0%
same,inhibition of human Kv1.2 potassium currents,[7],9.3 ± 0.8%
same,inhibition of human Kv1.3 potassium currents,[8],14.6 ± 0.9%
same,inhibition of human Kv1.6 potassium currents,[9],31.2 ± 3.6%
same,inhibition of human Kv3.2 potassium currents,[10],11.6 ± 1.3%
same,inhibition of human KCNQ1/KCNE1 channel currents,[11]; 10 nM rmBD3,21.8 ± 3.6%
same,inhibition of human KCNQ1/KCNE1 channel currents,[11]; 100 nM rmBD3,32.4 ± 1.8%
same,inhibition of human KCNQ1/KCNE1 channel currents,[11]; 1 μM rmBD3,46.3 ± 4.2%
same,inhibition of human KCNQ1/KCNE1 channel currents,[11]; 10 μM rmBD3,68.8 ± 3.8%
same,IC50,"[11]; Hill equation fitting, four concentrations, read-out: IC50, human KCNQ1/KCNE1 channel currents",1200 ± 800 nM
same,inhibition of human KCNQ1 channel currents,[12],26.1 ± 4.8%
same,inhibition of hERG potassium currents,[13],14.7 ± 3.9%
same,inhibition of mutant Kv1.6-D400A channel,[14],54.9 ± 1.9%
same,inhibition of mutant Kv1.6-D401A channel,[15],20.7 ± 4.5%
same,inhibition of mutant Kv1.6-V402A channel,[16],21.8 ± 4.5%
same,inhibition of mutant Kv1.6-D403A channel,[17],35.6 ± 1.0%
same,inhibition of mutant Kv1.6-D411A channel,[18],43.2 ± 3.5%
same,inhibition of mutant Kv1.6-M428A channel,[19],39.3 ± 1.8%
same,inhibition of mutant Kv1.6-Y429A channel,[20],36.7 ± 2.0%
